Publication PMC4789278, “Pharmacological inhibition of LSD1 for the treatment of MLL-rearranged leukemia” (Journal of Hematology & Oncology, 2016)
Where two headings read alike, the source gives them in different places.

Tests used:
MV4-11 leukemia cells = assay: Antiproliferation assay (XTT), MV4-11; type: cell-based; conditions: Homo sapiens, MV4-11, 360 h; 15-day treatment; MLL-rearranged leukemia; read-out: MV4-11 EC50 (antiproliferative)
Protocol: Next, these three compounds were tested for their cellular activity against proliferation of MV4-11 leukemia cells bearing MLL-AF4 fusion oncogene.
(§1) These compounds were incubated with a panel of six human leukemia and solid tumor cell lines, including two MLL-rearranged leukemia cells MV4-11 and Molm-13 containing fusion oncogenes MLL-AF4 and -AF9, respectively. […] Also included in the studies are breast cancer MCF-7 and prostate cancer LNCaP cells.
(§2) Proliferation inhibition assay for suspension leukemia cells was performed using an XTT assay kit (Roche) with our previously described method. Proliferation inhibition assay for solid tumor cell lines MCF-7 and LNCaP was performed using our previous described MTT assay. The antiproliferation EC50 values were determined by Prism, and the reported results were the mean values of at least three independent experiments.

[1] = system: breast cancer MCF-7 cells; assay: Antiproliferation assay (MTT), MCF-7; type: cell-based; conditions: Homo sapiens, MCF7, 360 h, 15-day treatment, read-out: MCF-7 EC50 (antiproliferative)
Protocol: as §1, §2

human MAO-A = target: T1, human MAO-A (Homo sapiens, UniProt P21397); assay: MAO-A inhibition (MAO-Glo); type: biochemical
T1 construct: purchased Sigma
T1 sequence (P21397 1-527): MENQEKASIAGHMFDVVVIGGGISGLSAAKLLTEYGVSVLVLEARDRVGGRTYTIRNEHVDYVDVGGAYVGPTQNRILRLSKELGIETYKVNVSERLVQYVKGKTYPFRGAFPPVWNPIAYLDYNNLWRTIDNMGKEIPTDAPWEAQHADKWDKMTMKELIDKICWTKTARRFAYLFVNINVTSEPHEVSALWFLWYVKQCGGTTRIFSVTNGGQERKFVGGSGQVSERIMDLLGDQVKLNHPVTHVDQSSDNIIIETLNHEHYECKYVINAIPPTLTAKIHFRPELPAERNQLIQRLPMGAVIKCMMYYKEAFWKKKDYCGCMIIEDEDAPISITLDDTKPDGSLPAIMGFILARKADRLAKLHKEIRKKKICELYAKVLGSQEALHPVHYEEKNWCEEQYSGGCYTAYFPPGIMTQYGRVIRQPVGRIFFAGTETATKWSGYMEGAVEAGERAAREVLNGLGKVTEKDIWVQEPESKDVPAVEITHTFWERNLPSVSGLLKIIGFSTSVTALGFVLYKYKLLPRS
Protocol: The cyclopropylamine LSD1 inhibitors were generally derived from MAO-A/-B inhibitor tranylcypromine, an antidepression drug. Because MAO-A and -B play important roles in the degradation of neurotransmitters (e.g., serotonin and dopamine) in the central nervous system, selective inhibition for LSD1 is highly desirable.
Recombinant human MAO-A and -B were purchased from Sigma. The inhibitory activity was determined using MAO-Glo assay kit (Promega). In brief, following the manufacturer’s protocol, assays were performed in 384-well white plates (Corning) using MAO-A or -B (100 nM) with a final volume of 20 μL. Reactions were quenched after 60 min by adding reconstituted luciferin detection reagent (20 μL/well); 20 min after addition of the detection reagent, the luminescence of each well was measured using Beckman DTX-880 microplate reader. IC50 calculation was similar to that of LSD1.

H3K4me2 in MV4-11 cells = assay: Western blot of histone H3K4 methylation; type: cell-based, human; conditions: 3 days
Protocol: Compounds 1 and 2 were selected for further biological activity testing. MV4-11 cells were treated with these two compounds for 3 days. […] Other researchers observed the similar results using a different LSD1 inhibitor.
With increasing concentrations of a compound for […], 10^6 cells/well were incubated and histones extracted with the EpiQuik™ Total Histone Extraction Kit (Epigentek) according to the manufacturer’s protocol. Equal amounts of histones (2 μg) were separated on SDS-PAGE and transferred to PVDF membranes. The blots were probed with H3K4-Me2 and H3 primary antibodies (Cell Signaling), followed by antirabbit IgG (Thermo Scientific) secondary antibodies.

[2] = set-up: method as in PMID 22754608; conditions: mice; cited from earlier work
recombinant human LSD1 = target: T2, recombinant human LSD1 (Homo sapiens, UniProt O60341); assay: LSD1 enzyme inhibition assay (HRP/Amplex red); type: biochemical
T2 construct: Human LSD1 catalytic domain (172-833) was cloned; made in house; host or cells: E. coli BL21-CodonPlus (Agilent)
Protocol: The LSD1 inhibition assay was performed with the reaction rate (i.e., amount of the product H2O2, Additional file 1: Figure S2) being quantitatively determined by adding horseradish peroxidase (HRP) and a HRP fluorescence substrate Amplex red.
Human LSD1 catalytic domain (172-833) was cloned and inserted into pGEX-KG vector. The correctness of insert was verified by sequencing. BL21-CodonPlus strain (Agilent) was transformed with the pGEX-KG-LSD1 plasmid and cultured at 37 °C in LB medium containing ampicillin (50 μg/mL) and chloramphenicol (34 μg/mL). Upon reaching an optical density of ~0.9 at 600 nm, LSD1 expression was induced by adding 0.2 mM isopropylthiogalactoside at 25 °C for 20 h. Cells were harvested, lysed, and centrifuged at 20,000 rpm for 20 min, and the supernatant was collected and subjected to an affinity column chromatography using the glutathione sepharose resin.
The inhibition assay for the recombinant LSD1 was performed using a published protocol, with the reaction rate (i.e., amount of the product H2O2) being quantitatively determined by adding HRP and a HRP fluorescence substrate Amplex red. […] The total volume of the reaction mixture is 60 μL. After 20 min, 60-μL solution containing HRP (0.01 unit) and Amplex red (80 μM) was added and the fluorescence of each well was determined using a Beckman DTX-880 microplate reader (excitation at 535 and emission at 595 nm). Data were imported into Prism 5.0 (GraphPad), and the IC50 values were calculated by using the sigmoidal dose response curve fitting in the software. The reported IC50s were the mean values of at least three independent experiments.

[3] = range covers MAO-A and MAO-B, read-out: IC50 against MAO-A and -B (range over both enzymes)

IC50 (recombinant human LSD1) [µM] | Compound | EC50 (MV4-11 leukemia cells) [µM] | EC50 [1] [µM] | IC50 (human MAO-A; [3]) [µM] | IC50 (human MAO-A; read-out: MAO-A IC50) [µM] | cellular levels of H3K4me2 (H3K4me2 in MV4-11 cells) | half-life in the plasma [2]
– | CN1CCN(C(=O)CNC2CC2c2ccc(OCc3ccccc3)cc2)CC1 (stereo not shown) [Compound 1] | 0.01 | 1.6 | 17.5 to 480 | 17.5 | increase cellular levels of H3K4me2 in a dose-dependent manner | ~ 1 h
0.077 | CN1CCN(C(=O)CNC2CC2c2ccc(-c3ccc(F)nc3)cc2)CC1 (stereo not shown) [Compound 2] | – | – | 17.5 to 480 | 120 | increase cellular levels of H3K4me2 in a dose-dependent manner | –
